#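 1) Cells in 96-well plates. 2) Compound, 48 h, 5 concentrations. 3) Linear interpolation between surrounding doses. 4) Unreached endpoint = highest concentration. At the GI50, growth is halved.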 Activity calls are given as the source filed them. Rule as the data show it: active = GI50 up to about 1.1 µM and inactive = higher.
# Legend:
# Experiment in all cases: inhibition of tumour cell growth, NCI panel, 48 h
# [1] = test system: IGROV-1
# [2] = test system: COLO 205
# [3] = test system: OVCAR-8
# [4] = test system: T47D
# [5] = test system: CCRF-CEM
# [6] = test system: MDA-MB-231
# [7] = test system: M14
# [8] = test system: CAKI-1
# [9] = test system: UO-31
# [10] = test system: MDA-MB-435
# [11] = test system: HL-60
# [12] = test system: HOP-62
# [13] = test system: OVCAR-4
# [14] = test system: OVCAR-3
# [15] = test system: LOX IMVI
# [16] = test system: U-251
# [17] = test system: SF-295
# [18] = test system: NCI-H522
# [19] = test system: SW-620
# [20] = test system: HCC 2998
Compound,GI50 [1],GI50 [2],GI50 [3],GI50 [4],GI50 [5],GI50 [6],GI50 [7],GI50 [8],GI50 [9],GI50 [10],GI50 [11],GI50 [12],GI50 [13],GI50 [14],GI50 [15],GI50 [16],GI50 [17],GI50 [18],GI50 [19],GI50 [20]
Cn1c(=O)c2nc(CS(=O)(=O)Cc3nc4c(=O)n(C)c(=O)n(C)c4[nH]3)[nH]c2n(C)c1=O,> 100 µM (inactive),> 100 µM (inactive),> 100 µM (inactive),> 100 µM (inactive),> 100 µM (inactive),40.6 µM (inactive),> 100 µM (inactive),> 100 µM (inactive),> 100 µM (inactive),> 100 µM (inactive),> 100 µM (inactive),> 100 µM (inactive),43.1 µM (inactive),> 100 µM (inactive),> 100 µM (inactive),33.2 µM (inactive),> 100 µM (inactive),> 100 µM (inactive),> 100 µM (inactive),–
COc1cc(/C=C2\C[C@H]3[C@@H]4CC=C5C[C@@H](N6CCCC6)CC[C@]5(C)[C@H]4CC[C@]3(C)[C@H]2OC(C)=O)cc(OC)c1OC,16.3 µM (inactive),12.9 µM (inactive),15 µM (inactive),20.3 µM (inactive),12.9 µM (inactive),16.3 µM (inactive),15.8 µM (inactive),17 µM (inactive),15 µM (inactive),12.9 µM (inactive),21.9 µM (inactive),15.6 µM (inactive),18.2 µM (inactive),15.5 µM (inactive),–,15.8 µM (inactive),12.8 µM (inactive),16.7 µM (inactive),14.8 µM (inactive),2.38 µM (inactive)
Cc1ccc(-c2cc(N)n(-c3nc4c(c(=O)n(C)c(=O)n4C)n3C)n2)cc1,> 100 µM (inactive),> 100 µM (inactive),> 100 µM (inactive),> 100 µM (inactive),> 100 µM (inactive),> 100 µM (inactive),> 100 µM (inactive),> 100 µM (inactive),> 100 µM (inactive),> 100 µM (inactive),> 100 µM (inactive),21.7 µM (inactive),42.5 µM (inactive),> 100 µM (inactive),–,> 100 µM (inactive),62.7 µM (inactive),86.5 µM (inactive),–,> 100 µM (inactive)
O=C(CSCC(=O)N/N=C/c1cccc(O)c1)N/N=C/c1cccc(O)c1,> 100 µM (inactive),> 100 µM (inactive),> 100 µM (inactive),> 100 µM (inactive),–,> 100 µM (inactive),> 100 µM (inactive),> 100 µM (inactive),> 100 µM (inactive),> 100 µM (inactive),> 100 µM (inactive),> 100 µM (inactive),> 100 µM (inactive),> 100 µM (inactive),–,> 100 µM (inactive),> 100 µM (inactive),> 100 µM (inactive),> 100 µM (inactive),> 100 µM (inactive)
CC(C)=CCC/C(C)=C/CC/C(C)=C/CC/C(C)=C/CC/C(C)=C\CC/C(C)=C/CC/C(C)=C/CC/C(C)=C/Cc1cc(O)ccc1O,0.323 µM (active),0.387 µM (active),1.15 µM (inactive),1.24 µM (inactive),0.955 µM (active),20.6 µM (inactive),0.213 µM (active),0.239 µM (active),1.72 µM (inactive),0.39 µM (active),–,6.03 µM (inactive),1.32 µM (inactive),0.573 µM (active),0.966 µM (active),1.85 µM (inactive),1.45 µM (inactive),0.505 µM (active),2.28 µM (inactive),4.99 µM (inactive)
CN/C(=N\n1cnnc1)OC,> 100 µM (inactive),> 100 µM (inactive),> 100 µM (inactive),> 100 µM (inactive),> 100 µM (inactive),> 100 µM (inactive),> 100 µM (inactive),> 100 µM (inactive),> 100 µM (inactive),> 100 µM (inactive),–,> 100 µM (inactive),> 100 µM (inactive),> 100 µM (inactive),–,> 100 µM (inactive),> 100 µM (inactive),> 100 µM (inactive),> 100 µM (inactive),> 100 µM (inactive)
Cc1ccc(/C=N/n2c(-c3ccc(C)cc3)n[nH]c2=O)cc1,> 100 µM (inactive),> 100 µM (inactive),36.7 µM (inactive),> 100 µM (inactive),21.5 µM (inactive),45.8 µM (inactive),68.4 µM (inactive),35.9 µM (inactive),75 µM (inactive),47.2 µM (inactive),> 100 µM (inactive),61.9 µM (inactive),40 µM (inactive),> 100 µM (inactive),–,35.3 µM (inactive),48.8 µM (inactive),> 100 µM (inactive),> 100 µM (inactive),> 100 µM (inactive)
C=[N+](CNC(=O)CNC(=O)C(Cc1ccc([N+](=O)[O-])cc1)NC(=O)OC(C)(C)C)C(=O)CNC(=O)C(Cc1ccc([N+](=O)[O-])cc1)NC(=O)OC(C)(C)C (centres undefined),42.4 µM (inactive),58.2 µM (inactive),52.7 µM (inactive),> 10 µM (inactive),–,25.7 µM (inactive),28.1 µM (inactive),> 100 µM (inactive),> 100 µM (inactive),26.2 µM (inactive),13.3 µM (inactive),> 100 µM (inactive),> 100 µM (inactive),50.1 µM (inactive),15.7 µM (inactive),39.4 µM (inactive),46.6 µM (inactive),24.3 µM (inactive),41.6 µM (inactive),38.9 µM (inactive)
CCOC(=O)CC(=O)C(=O)NN=C1NCCN1,> 100 µM (inactive),> 100 µM (inactive),> 100 µM (inactive),> 100 µM (inactive),> 100 µM (inactive),> 100 µM (inactive),> 100 µM (inactive),–,> 100 µM (inactive),> 100 µM (inactive),> 100 µM (inactive),> 100 µM (inactive),> 100 µM (inactive),> 100 µM (inactive),> 100 µM (inactive),> 100 µM (inactive),> 100 µM (inactive),> 100 µM (inactive),> 100 µM (inactive),> 100 µM (inactive)
CCCC(=O)Nc1cc([N+](=O)[O-])c([N+](=O)[O-])cc1OC,20.9 µM (inactive),15.5 µM (inactive),16.3 µM (inactive),3.8 µM (inactive),14.1 µM (inactive),19.1 µM (inactive),12.8 µM (inactive),16 µM (inactive),1.75 µM (inactive),18.4 µM (inactive),13.1 µM (inactive),12.6 µM (inactive),15.4 µM (inactive),14.6 µM (inactive),2.79 µM (inactive),16.3 µM (inactive),10.1 µM (inactive),12.9 µM (inactive),22.4 µM (inactive),–
CC1(C)C2CCC1(C)C(NC(=O)CCN1CCOCC1)C2 (centres undefined),> 100 µM (inactive),> 100 µM (inactive),> 100 µM (inactive),> 100 µM (inactive),> 100 µM (inactive),> 100 µM (inactive),> 100 µM (inactive),> 100 µM (inactive),> 100 µM (inactive),> 100 µM (inactive),> 100 µM (inactive),> 100 µM (inactive),> 100 µM (inactive),> 100 µM (inactive),–,> 100 µM (inactive),> 100 µM (inactive),> 100 µM (inactive),> 100 µM (inactive),> 100 µM (inactive)
O=C(NCCCN(CCCCN(CCCNC(=O)c1cc(S(=O)(=O)O)cc(O)c1O)C(=O)c1cc(S(=O)(=O)O)cc(O)c1O)C(=O)c1cc(S(=O)(=O)O)cc(O)c1O)c1cc(S(=O)(=O)O)cc(O)c1O,> 100 µM (inactive),> 100 µM (inactive),> 100 µM (inactive),> 100 µM (inactive),> 100 µM (inactive),> 100 µM (inactive),–,> 100 µM (inactive),> 100 µM (inactive),> 100 µM (inactive),66.1 µM (inactive),–,> 100 µM (inactive),–,98.4 µM (inactive),> 100 µM (inactive),–,> 100 µM (inactive),> 100 µM (inactive),> 100 µM (inactive)
NC(=O)C1CCCN1Cc1ccc2c(c1)OCO2 (centres undefined),> 100 µM (inactive),> 100 µM (inactive),> 100 µM (inactive),> 100 µM (inactive),> 100 µM (inactive),> 100 µM (inactive),> 100 µM (inactive),> 100 µM (inactive),> 100 µM (inactive),> 100 µM (inactive),> 100 µM (inactive),> 100 µM (inactive),> 100 µM (inactive),> 100 µM (inactive),> 100 µM (inactive),> 100 µM (inactive),> 100 µM (inactive),> 100 µM (inactive),> 100 µM (inactive),–
O=C(CC(C(=O)c1cccs1)c1ccsc1)c1cccs1 (centres undefined),> 100 µM (inactive),75.2 µM (inactive),> 100 µM (inactive),26.3 µM (inactive),37.8 µM (inactive),> 100 µM (inactive),> 10 µM (inactive),> 100 µM (inactive),51.3 µM (inactive),29.1 µM (inactive),–,> 100 µM (inactive),79.8 µM (inactive),45 µM (inactive),–,> 100 µM (inactive),42 µM (inactive),54.2 µM (inactive),81.7 µM (inactive),83.9 µM (inactive)

# — ChEMBL document CHEMBL1201862, “PubChem BioAssay data set” (2004)
